Patent publication US20230089073A1 (Carmot Therapeutics, Inc., priority 2021, published 2023)

Target: T1, human GLP-1 receptor (Homo sapiens, UniProt P43220)
T1 construct: expressed in transfected cells
Experiment: GLP-1R cAMP Assay
Format: cell-based
Conditions: cAMP accumulation in CHO cells stably overexpressing the human GLP-1 receptor; 30 min treatment; HitHunter cAMP kit; read-out: EC50
How it was run: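 Luminescent enzyme-complementation detection of cAMP, read after cell lysis and overnight incubation, with dose-response curve fitting. Stimulation lasted 30 min, using 20-point triplicate dosing on CHO cells (10,000 per well) stably overexpressing human GLP-1R.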

T1 sequence (P43220 24-463): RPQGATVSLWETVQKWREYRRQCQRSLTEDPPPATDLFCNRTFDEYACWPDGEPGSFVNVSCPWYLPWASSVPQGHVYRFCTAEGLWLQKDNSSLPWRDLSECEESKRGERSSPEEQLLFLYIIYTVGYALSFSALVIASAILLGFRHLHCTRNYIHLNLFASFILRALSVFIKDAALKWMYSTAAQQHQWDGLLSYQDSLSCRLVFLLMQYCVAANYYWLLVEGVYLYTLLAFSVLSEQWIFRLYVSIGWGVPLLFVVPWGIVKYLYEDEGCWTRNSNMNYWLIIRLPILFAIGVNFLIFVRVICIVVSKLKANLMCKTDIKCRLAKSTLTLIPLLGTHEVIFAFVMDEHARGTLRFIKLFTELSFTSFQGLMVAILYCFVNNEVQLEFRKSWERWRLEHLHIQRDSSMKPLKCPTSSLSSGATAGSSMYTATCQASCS

| EC50 [nM] | SMILES |
| --- | --- |
| < 50 | CCn1cncc1Cn1c(CN2CCC(Cc3cnc(COc4ccc(Cl)cc4Cl)o3)CC2)nc2ccc(C(=O)O)nc21 [Compound 125, 2-{[4-({2-[(2,4-dichlorophenoxy)methyl]-1,3-oxazol-5-yl}methyl)piperidin-1-yl]methyl}-3-[(1-ethyl-1H-imidazol-5-yl)methyl]-3H-imidazol[4,5-b]pyridine-5-carboxylic acid] |
| 50 to 500 | O=C(O)c1ccc2nc(CN3CCC(Cc4cc(F)cc(COc5ccc(Cl)cc5Cl)c4)CC3)n(C[C@@H]3CCO3)c2c1 [Compound 126, 2-{[4-({3-[(2,4-dichlorophenoxy)methyl]-5-fluorophenyl}methyl)piperidin-1-yl]methyl}-1-{[(2S)-oxetan-2-yl]methyl}-1H-1,3-benzodiazole-6-carboxylic acid] |
| < 50 | O=C(O)c1ccc2nc(CN3CCC(Cc4cnc(COc5ccc(Cl)cc5Cl)o4)CC3)n(C[C@@H]3CCO3)c2n1 [Compound 129, 2-{[4-({2-[(2,4-dichlorophenoxy)methyl]-1,3-oxazol-5-yl}methyl)piperidin-1-yl]methyl}-3-{[(2S)-oxetan-2-yl]methyl}-3H-imidazo[4,5-b]pyridine-5-carboxylic acid] |
| < 50 | CCn1cncc1Cn1c(CN2CCC(Cc3cc(F)cc(COc4ccc(Cl)cc4Cl)c3)CC2)nc2ccc(C(=O)O)cc21 [Compound 133, 2-{[4-({3-[(2,4-dichlorophenoxy)methyl]-5-fluorophenyl}methyl)piperidin-1-yl]methyl}-1-[(1-ethyl-1H-imidazol-5-yl)methyl]-1H-1,3-benzodiazole-6-carboxylic acid] |
| 50 to 500 | O=C(O)c1ccc2nc(CN3CCC(Cc4cccc(COc5ccc(Cl)cc5Cl)c4F)CC3)n(C[C@@H]3CCO3)c2c1 [Compound 135, 2-{[4-({3-[(2,4-dichlorophenoxy)methyl]-2-fluorophenyl}methyl)piperidin-1-yl]methyl}-1-{[(2S)-oxetan-2-yl]methyl}-1H-1,3-benzodiazole-6-carboxylic acid] |
| < 50 | CCn1cncc1Cn1c(CN2CCC(Cc3cc(COc4ccc(Cl)cc4Cl)ccc3F)CC2)nc2ccc(C(=O)O)cc21 [Compound 137, 2-{[4-({5-[(2,4-dichlorophenoxy)methyl]-2-fluorophenyl}methyl)piperidin-1-yl]methyl}-1-[(1-ethyl-1H-imidazol-5-yl)methyl]-1H-1,3-benzodiazole-6-carboxylic acid] |
| < 50 | CCn1cncc1Cn1c(CN2CCC(Cc3cnc(COc4ccc(Cl)cc4C#N)o3)CC2)nc2ccc(C(=O)O)cc21 [Compound 138, 2-{[4-({2-[(4-chloro-2-cyanophenoxy)methyl]-1,3-oxazol-5-yl}methyl)piperidin-1-yl]methyl}-1-[(1-ethyl-1H-imidazol-5-yl)methyl]-1H-1,3-benzodiazole-6-carboxylic acid] |
| < 50 | CCn1cncc1Cn1c(CN2CCC(Cc3cncc(COc4ccc(Cl)cc4Cl)c3)CC2)nc2ccc(C(=O)O)cc21 [Compound 139, 2-{[4-({5-[(2,4-dichlorophenoxy)methyl]pyridin-3-yl}methyl)piperidin-1-yl]methyl}-1-[(1-ethyl-1H-imidazol-5-yl)methyl]-1H-1,3-benzodiazole-6-carboxylic acid] |
| < 50 | CCn1cncc1Cn1c(CN2CCC(Cc3cccc(COc4ccc(Cl)cc4Cl)n3)CC2)nc2ccc(C(=O)O)cc21 [Compound 140, 2-{[4-({6-[(2,4-dichlorophenoxy)methyl]pyridin-2-yl}methyl)piperidin-1-yl]methyl}-1-[(1-ethyl-1H-imidazol-5-yl)methyl]-1H-1,3-benzodiazole-6-carboxylic acid] |
| < 50 | CCn1cncc1Cn1c(CN2CCC(Cc3cnc(COc4ccc(Cl)cc4C)o3)CC2)nc2ccc(C(=O)O)cc21 [Compound 141, 2-{[4-({2-[(4-chloro-2-methylphenoxy)methyl]-1,3-oxazol-5-yl}methyl)piperidin-1-yl]methyl}-1-[(1-ethyl-1H-imidazol-5-yl)methyl]-1H-1,3-benzodiazole-6-carboxylic acid] |
| > 500 | O=C(O)c1ccc2nc(CN3CCc4[nH]c5ccc(OCc6ccc(Cl)cc6Cl)cc5c4C3)n(C[C@@H]3CCO3)c2c1 [Compound 142, 2-({8-[(2,4-dichlorophenyl)methoxy]-1H,2H,3H,4H,5H-pyrido[4,3-b]indol-2-yl}methyl)-1-{[(2S)-oxetan-2-yl]methyl}-1H-1,3-benzodiazole-6-carboxylic acid] |
| 50 to 500 | CCn1cncc1Cn1c(CN2CCc3[nH]c4ccc(OCc5ccc(Cl)cc5Cl)cc4c3C2)nc2ccc(C(=O)O)cc21 [Compound 143, 2-({8-[(2,4-dichlorophenyl)methoxy]-1H,2H,3H,4H,5H-pyrido[4,3-b]indol-2-yl}methyl)-1-[(1-ethyl-1H-imidazol-5-yl)methyl]-1H-1,3-benzodiazole-6-carboxylic acid] |
| < 50 | CCn1cncc1Cn1c(CN2CCC(Cc3cnc(COc4ncc(C5CC5)cc4Cl)o3)CC2)nc2ccc(C(=O)O)cc21 [Compound 144, 2-({4-[(2-{[(3-chloro-5-cyclopropylpyridin-2-yl)oxy]methyl}-1,3-oxazol-5-yl)methyl]piperidin-1-yl}methyl)-1-[(1-ethyl-1H-imidazol-5-yl)methyl]-1H-1,3-benzodiazole-6-carboxylic acid] |
| < 50 | O=C(O)c1ccc2nc(CN3CCC(Cc4cccc(COc5ccc(Cl)cc5Cl)c4)CC3)n(C[C@H]3CCOC3)c2c1 [Compound 148, 2-{[4-({3-[(2,4-dichlorophenoxy)methyl]phenyl}methyl)piperidin-1-yl]methyl}-1-{[(3R)-oxolan-3-yl]methyl}-1H-1,3-benzodiazole-6-carboxylic acid] |
| < 50 | O=C(O)c1ccc2nc(CN3CCC(Cc4cccc(COc5ccc(Cl)cc5Cl)c4)CC3)n(Cc3ncco3)c2c1 [Compound 149, 2-{[4-({3-[(2,4-dichlorophenoxy)methyl]phenyl}methyl)piperidin-1-yl]methyl}-1-[(1,3-oxazol-2-yl)methyl]-1H-1,3-benzodiazole-6-carboxylic acid] |
| < 50 | O=C(O)c1ccc2nc(CN3CCC(Cc4cccc(COc5ccc(Cl)cc5Cl)c4)CC3)n(C[C@@H]3CCCO3)c2c1 [Compound 151, 2-{[4-({3-[(2,4-dichlorophenoxy)methyl]phenyl}methyl)piperidin-1-yl]methyl}-1-{[(2S)-oxolan-2-yl]methyl}-1H-1,3-benzodiazole-6-carboxylic acid] |
| < 50 | CCn1cncc1Cn1c(CN2CCC(Cc3cccc(COc4ccc(C5CC5)cc4Cl)n3)CC2)nc2ccc(C(=O)O)cc21 [Compound 153, 2-{[4-({6-[(2-chloro-4-cyclopropylphenoxy)methyl]pyridin-2-yl}methyl)piperidin-1-yl]methyl}-1-[(1-ethyl-1H-imidazol-5-yl)methyl]-1H-1,3-benzodiazole-6-carboxylic acid] |
| < 50 | CCn1cncc1Cn1c(CN2CCN(C(=O)c3cnc(COc4ccc(Cl)cc4Cl)o3)CC2)nc2ccc(C(=O)O)cc21 [Compound 156, 2-[(4-{2-[(2,4-dichlorophenoxy)methyl]-1,3-oxazole-5-carbonyl}piperazin-1-yl)methyl]-1-[(1-ethyl-1H-imidazol-5-yl)methyl]-1H-1,3-benzodiazole-6-carboxylic acid] |
